Assay [1] has as its system Crlj:W1 male rats at four weeks old. Put plainly: Mineral apposition rate in secondary cancellous bone, 7-day oral administration. Format: in vivo, rat. To be noted: seven days. How it is done: One of the synthetic peptides (No. 1) or water for injection (control) was administered to Crlj:W1 male rats at four weeks old by oral gavage using a gastric tube once a day for seven days (n=10 in each group). The dose of the synthetic peptide was 1, 10 or 100 mg/kg-day. As a positive control, human growth hormone (hGH) (Norditropin, Standard Commodity Classification No. of Japan: 872412) was subcutaneously administered at 500 μg/kg·day once a day for seven days. As fluorescent labels for the site of bone formation, tetracycline (20 mg/kg) was subcutaneously administered on day 4 after the administration of the peptide or control, and then calcein (10 mg/kg) was subcutaneously administered on day 6 after the administration of the peptide or control. After the administration of the test sample on day 7, the rats were kept under fasting conditions. Twenty-four hours later, the rats were euthanized by bloodletting under anesthesia, and the tibiae were harvested. Non-decalcified specimens of the proximal tibiae were prepared and photographed under a fluorescent microscope (BX-53, OLYMPUS). The bone morphology was measured using a morphometry system (Histometry RT digitizer, System Supply Co., Ltd.) and an analysis software (CSS-840 cancellous bone morphometry version, System Supply Co., Ltd.). The mineral apposition rate (MAR), per day, in the secondary cancellous bone was determined by measuring the distance between the tetracycline label and the calcein label in the secondary cancellous bone, and dividing the distance by the administration interval between the fluorescent labels (two days). […] The increase in the mineral apposition rate in the secondary cancellous bone in the No. 1 administration group would have resulted from the increase in the number of osteoblasts.

For assay [2] the test system is unchanged. Nature of the assay: Bone formation in growth cartilage and secondary cancellous bone, 21-day oral administration. Format: in vivo, rat. To be noted: 21 days. The protocol: One of the synthetic peptides (No. 1) or water for injection (control) was administered to Crlj:W1 male rats at four weeks old by oral gavage using a gastric tube once a day for 21 days (n=3 in each group). The dose of the synthetic peptide was 100 mg/kg·day. As a positive control, human growth hormone (hGH) (Norditropin, Standard Commodity Classification No. of Japan: 872412) was subcutaneously administered at 500 μg/kg·day once a day for 21 days. As fluorescent labels for the site of bone formation, tetracycline (20 mg/kg) was subcutaneously administered on day 18 after the administration of the peptide or control, and then calcein (10 mg/kg) was subcutaneously administered on day 20 after the administration of the peptide or control. After the administration of the test sample on day 21, the rats were kept under fasting conditions. Twenty-four hours later, the rats were euthanized by bloodletting under anesthesia, and the tibiae were harvested (see FIG. 20). Non-decalcified specimens of the proximal tibiae were prepared and photographed under a fluorescent microscope (BX-53, OLYMPUS). The bone morphology was measured using a morphometry system (Histometry RT digitizer, System Supply Co., Ltd.) and an analysis software (CSS-840 cancellous bone morphometry version, System Supply Co., Ltd.). The longitudinal growth rate (Lo.G.R.) in the epiphyseal cartilage, which is the increase in the height per day, was determined by measuring the distance between the tetracycline label and the calcein label, and dividing the distance by the administration interval between the fluorescent labels (two days).

The subject of assay [3] is mouse osteoblast-like cell line MC3T3-E1 Subclone-4. Put plainly: Osteoblast growth-promoting activity (cell counting method). To be noted: synthetic peptides at 2.5, 5 or 10 μg/mL; 72 hours; relative to PBS (−) group taken as 100; FIGS. 9 to 12. The class given is cell-based. The protocol: A mouse osteoblast-like cell line MC3T3-E1 Subclone-4 (ATCC No. CRL-2593) was cultured in α-MEM medium supplemented with 10% FBS at 5% CO2 and 95% air at 37° C. until confluent. The cells were collected by trypsinization. The collected cells were suspended at 1×10^4 cells/mL in fresh α-MEM medium. One mL of the cell suspension was seeded in each well of a 24-well plate, and precultured at 5% CO2 and 95% air at 37° C. On the next day, the medium was replaced with medium prepared by well mixing 50 μL of a sample or PBS (−) with 950 μL of fresh α-MEM medium supplemented with CaCl2 to a Ca concentration of 500 μg/mL. The cells were further cultured for 72 hours. The growth activity of osteoblasts was measured by the cell counting method. The activity of the sample for promoting the growth of osteoblasts was expressed in terms of the relative value, with the growth rate in the PBS (−) group taken as 100. Osteoblast growth-promoting activity was determined for the synthetic peptides in the same manner as in Example 1. The synthetic peptides were added at 2.5, 5 or 10 μg/mL per well. As a control, PBS (−) was added. The osteoblast growth-promoting activity was expressed in terms of the relative value, with the growth rate in the PBS (−) group taken as 100.

Assay [4] deals with aged female rats (13 to 14 months old). Put plainly: Bone formation-promoting effect in aged rats. Format: in vivo, rat. To be noted: oral 1, 10 or 100 mg/kg·day, 20 weeks. The protocol: Synthetic peptide No. 1 was administered to aged female rats (13 to 14 months old, ten rats in each group) by oral gavage using a gastric tube once a day for 20 weeks. The dose of the synthetic peptide was 1, 10 or 100 mg/kg·day.

The test system of assay [5] is Sprague-Dawley male rats at three weeks old. Nature of the assay: Bone growth promoting effect in adolescent rats (tibial growth plate, calcein label). Format: in vivo, rat. To be noted: FIG. 13. The protocol:
One of the synthetic peptides (No. 1) or physiological saline (control) was administered to Sprague-Dawley male rats at three weeks old by oral gavage using a gastric tube once a day for four days. The dose of the synthetic peptide was 1, 10 or 100 mg/kg·day. As a positive control, human growth hormone (hGH) (Norditropin, Standard Commodity Classification No. of Japan: 872412) was subcutaneously administered at 20 μg/kg·day once a day for four days. After the administration on day 4, calcein was subcutaneously administered, and the rats were kept for one day. The rats were euthanized by bloodletting under anesthesia, and the tibiae were harvested. The tissue specimens of the tibial growth plates were prepared, and calcein deposition areas (fluorescent regions) on the tibial growth plates were measured under a fluorescent microscope to determine the longitudinal bone growth.

No end group written: not given here.

As for VNPESEEE [No. 1], the “mineral apposition rate (MAR) in the secondary cancellous bone, vs control group” value in assay [1] (No. 1 oral 1, 10 or 100 mg/kg-day, hGH 500 μg/kg·day subcutaneous, FIG. 26) was “significant increase in the mineral apposition rate”. Further, the “osteoblast surface/bone surface (Ob.S/BS)” value in assay [1] (oral 1, 10 or 100 mg/kg-day, FIG. 27) is given as “high percentage”; in assay [2] (oral 100 mg/kg·day, FIG. 23), “high percentage”. The “number of osteoblasts/tissue volume (N.Ob/TV)” value in assay [1] (oral 1, 10 or 100 mg/kg-day, FIG. 28) is given as “high number of osteoblasts”. Further, the “bone formation rate/bone surface (BFR/BS)” value in assay [1] (oral 1, 10 or 100 mg/kg-day, FIG. 29) is recorded as “high rates”. For the same sequence, in assay [1] (oral dose of 10 mg/kg-day or more), the “bone formation rate/bone surface (BFR/BS), vs control group” value is reported as “significant increase in the bone formation rate”. Moreover, the “mineral apposition rate (MAR) in the secondary cancellous bone, vs hGH administration group” value in assay [1] (oral dose of 10 mg/kg·day or more, FIG. 26) is reported as “significant increase in the mineral apposition rate at a dose of 10 mg/kg·day or more as compared with the hGH administration group”. Besides, in assay [2] (No. 1 oral 100 mg/kg·day, hGH 500 μg/kg·day subcutaneous, FIG. 21), the “longitudinal growth rate (Lo.G.R.) in the epiphyseal cartilage, vs control group” value was “significant promotion of bone growth as compared with the control group”. In assay [2] (oral 100 mg/kg·day, FIG. 21), the “longitudinal growth rate (Lo.G.R.) in the epiphyseal cartilage, vs hGH administration group” value is listed as “significant as compared with the hGH administration group”. For the same sequence, the “secondary cancellous bone volume (bone volume/tissue volume (BV/TV))” value in assay [2] (oral 100 mg/kg·day, FIG. 22) was “higher secondary cancellous bone volume than the control group and the hGH administration group”. The “osteoclast surface/Bone surface (Oc.S/BS)” value in assay [2] (oral 100 mg/kg·day, FIG. 24) is “low percentage”. For the same sequence, the osteoblast growth-promoting activity result in assay [3] is on record as “promoted the growth of osteoblasts in a concentration-dependent manner”. The “bone density in the femurs” value in assay [4] was “increased in a dose-dependent manner”. Moreover, the “cancellous bone volume in the proximal tibial metaphysis” value in assay [4] is given as “increased in a dose-dependent manner”. Besides, the “effect of enhancing the increase in the height of the tibial growth plates, compared with hGH” value in assay [5] (highest dose (100 mg/kg·day oral) vs hGH 20 μg/kg·day subcutaneous, four days) is reported as “comparable to the effect of the subcutaneous administration of the human growth hormone”. The “increase in the height of the tibial growth plates” value in assay [5] (oral gavage 1, 10 or 100 mg/kg·day once a day for four days) is “enhanced in a manner consistent with the increase in the dose of the synthetic peptide”.

The values above are taken from patent publication US10538564B2, “Peptides having osteoblast growth-promoting activity and use thereof” (PHARMA FOODS INTERNATIONAL CO., LTD., priority 2014, dated 2020).
